The text below walks through data of patent publication US20240207409A1, “ORAL DELIVERY OF OLIGONUCLEOTIDES” (CiVi Biopharma, Inc., priority 2021, published 2024).

Series [1] can be described thus: Oral capsule PK study of an oligo against Factor VII, with or without GalNAc, using 5-CNAC as carrier (Example 6). To be noted: for PK parameters compared to the corresponding CIVI 008 oligos: with and without GalNac. Type of series: in vivo, Cynomolgus monkey. As for the experimental part: Study outline: Dry blended capsules (20 mg Factor FVII with or without GalNac/200 mg 5-CNAC) were manufactured from uniform dry blended formulations, that were filled into enterically coated Size 0, hard shell gelatin capsules. A total of 10 Cynomolgus monkeys (5 males and 5 females) were each administered a single capsule of either oligo by oral gavage, and blood samples for PK analysis were drawn pre-dose and 0.5, 1.5, 3 and 5 hours post-dosing.

The nature of series [2]: Liver and intestinal tissue concentrations of CIVI 008 (Example 1). Format: in vivo, Cynomolgus monkey.
Description: The purpose of this study was to provide information on the capsule dosing of CIVI 008 for further clinical trials in humans.
For series [3], the system named is PCSK9. Put plainly: PCSK9 reduction after daily oral CIVI 008/SNAC capsules for 42 days (Example 1). Type of series: in vivo, Cynomolgus monkey. Conditions: daily oral for 42 days. As for the experimental part:
(§1) Toxicity results: The study was conducted to GLP standards and monitored the following toxicity parameters throughout the study (pre-dose, day 14, 29, 42, and end of recovery): • Hematology: red blood cell (erythrocyte) count, hemoglobin, hematocrit, mean corpuscular volume, mean corpuscular hemoglobin, mean corpuscular hemoglobin, concentration, red cell distribution width, absolute reticulocyte count, platelet count, white blood cell (leukocyte) count, absolute neutrophil count, absolute lymphocyte count, absolute monocyte count, absolute eosinophil count, absolute basophil count, absolute large unstained cell count, blood smear. • Clinical chemistry, PCSK9 and lipids: urea nitrogen, creatinine, total protein, albumin, globulin, albumin:globulin ratio, total bilirubin, aspartate aminotransferase, alanine aminotransferase, alkaline phosphatase, gamma glutamyltransferase, creatine kinase, calcium, inorganic phosphorus, sodium, potassium, chloride, high density lipoproteins, low density lipoprotein, very low density lipoprotein, total cholesterol, triglycerides.

Series [4] can be described thus: Oral capsule toxicokinetic study of CIVI 008 using 5-CNAC as carrier (Example 3). Format: in vivo, Cynomolgus monkey. To be noted: for increase of AUC with dose of CIVI 008 / increase of Cmax with dose of CIVI 008: constant dose of 5-CNAC. An excerpt:
The objectives of this study were to determine the ability of 5-CNAC [Disodium N-(5-Chorosalicyloyl)-8-aminocaprylate] to facilitate oral uptake of CIVI 008 and to determine the manufacture method and dosing paradigm of CIVI 008/5-CNAC capsules that provide the most efficient oral uptake of CIVI 008 when administered to Cynomolgus monkeys of Mauritian origin.
Study outline: A total of 10 Cynomolgus monkeys (5 males and 5 females) were each dosed with 2 group A capsules on Monday and Wednesday in week 1, followed by 4 days of dosing holiday. This Monday and Wednesday dosing scheme was continued in weeks 2, 3, 5, 6, 7, 8, 13, 14, 15 and 17 using 2 group B-capsules per dose occasion in week 2, and 1 capsule of groups C to K per dose occasion in their respective weeks. During the dosing period, blood samples for PK analysis were drawn pre-dose and 0.5, 1.5, 3 and 5 hours post-dosing on Mondays and Wednesdays. Samples for clinical chemistry and hematology (see example 1) were taken pre-study and end of study.

A short description of series [5]: Repeat-dose toxicity study to GLP standards, oral capsule (Example 1). To be noted: cynomolgus monkey, in vivo. As to the method:
as §1

Series [6] has as its system plasma LDL-cholesterol. Nature of the series: Plasma LDL-cholesterol after daily oral CIVI 008/SNAC capsules for 42 days and recovery (Example 1). Format: in vivo, Cynomolgus monkey. To be noted: for LDL-c in control animals: control capsules, throughout the study. As to the method:
as §1

For series [7] the following is noted: cynomolgus monkey, in vivo, po.
Protocol: The objectives of this study were to evaluate the toxicity and reversibility of CIVI 008 and to determine the pharmacology, plasma exposure and target organ accumulation of CIVI 008 when administered daily by oral capsule to the Cynomolgus monkey of Mauritian origin for 42 days compared to administration by the subcutaneous route administered once every two weeks (investigated previously).
Oral Capsule: Capsules containing CIVI 008 (10 mg)/SNAC (100 mg) were manufactured as uniform dry blend formulations, that were filled into Size 4 hard shell gelatin capsules that were enterically coated post fill.
A short description of series [8]: Half-life and accumulation of CIVI 008 in the liver. Type of series: in vivo, non-human primates. Conditions: expected after 7-weeks of once daily dosing.
Series [9] can be described thus: Oral capsule PK study of CIVI 008 without GalNAc using 5-CNAC as carrier (Example 5). Type of series: in vivo, Cynomolgus monkey. To be noted: single oral capsule, 20 mg/200 mg 5-CNAC; larger. An excerpt:
As shown in previous Examples 1 and 3, orally dosed CIVI 008 with GalNAc is rapidly internalized in the liver by the GalNAc receptor, with very little CIVI 008 escaping into general circulation at doses below that required for saturation of the GalNAc receptor. In many instances the objective is to target genes that are expressed in organs other than the liver. […] The objective of this study was to determine the systemic exposure of orally administered CIVI 008 without the GalNAc conjugate, and to compare the exposure to that of a similar oral dose of CIVI 008 with GalNAc.
Study outline: Dry blended capsules (20 mg CIVI 008 without GalNAc/200 mg 5-CNAC) were manufactured from uniform dry blended formulations, that were filled into enterically coated Size 0, hard shell gelatin capsules. A total of 10 Cynomolgus monkeys (5 males and 5 females) were each administered a single capsule by oral gavage, and blood samples for PK analysis were drawn pre-dose and 0.5, 1.5, 3 and 5 hours post-dosing.

Setting [10] is: single oral capsule, 20 mg/200 mg 5-CNAC.
The mark [11] stands for this setting: single oral capsule, 20 mg/200 mg 5-CNAC, higher.
Where [12] appears, read: dose increased further than 25 mg.
[13] abbreviates: oral, two group A capsules (each 10 mg CIVI 008/100 mg 5-CNAC, size 4).
Where [14] appears, read: size 4 (group A) to size 0 (group B) capsules.

Where two headings read alike, the source gives them in different places. {GalNAc3NHC6} = trivalent GalNAc moiety with NHC6 linker, (GalNAc3)(NHC6); l = locked nucleic acid (LNA); d = 2'-deoxy (DNA)

Take “unconjugated Factor FVII oligo: 13 nt ASO against Factor VII, SEQ ID NO 158, GbsCbsdAsdCsdCsdAsdCsdGsdGsdTsCbsCbsAb (antisense GCACCACGGTCCA; sugars from the 5' end l2 d8 l3, all phosphorothioate, methylation of C not given here)”: in [1] (setting [10]), the “concentrations in the plasma” value is given as “measurable concentrations”. Moreover, in series [1] (setting [11]), the “AUC relative to the GalNac conjugated Factor FVII oligo” value is about 3.5 fold and the “Cmax relative to the GalNac conjugated Factor FVII oligo” value was about 3.5 fold. Moreover, in [1], the “PK parameters compared to the corresponding CIVI 008 oligos” value is reported as “quite similar”.
For the compound “GalNac conjugated Factor FVII oligo: 13 nt ASO against Factor VII, SEQ ID NO 158, with (GalNAc3)(NHC6) moiety (antisense GCACCACGGTCCA; sugars from the 5' end l2 d8 l3, all phosphorothioate, 5' {GalNAc3NHC6}*, methylation of C not given here)”, the “concentrations in the plasma” value in series [1] (setting [10]) is “measurable concentrations”. For the same compound, in [1], the “PK parameters compared to the corresponding CIVI 008 oligos” value is listed as “quite similar”.
Consider “CIVI 008: GalNac conjugated LNA-gapmer antisense oligonucleotide targeting PCSK9 (SEQ ID NO: 134), cepadacursen formulated for oral administration (AATGCTACAAAACCCA; LNA gapmer with GalNAc conjugate, pattern not given here)”, for which the “concentrations of CIVI 008 in intestinal segments” value in series [2] (all segments, after QD oral dosing for 42 days) is listed as “measurable concentrations”. The “concentration of CIVI 008 in the liver during the recovery period” value in [2] (declined during recovery, 3-week timepoint) was “still present in measurable quantities”. The “difference in liver concentrations between the SQ and PO arms” value in [2] (measured at the end of the dosing period) was “approximately one”. The “mean PCSK9 reductions in control animals” value in series [3] is “comparatively small”. In series [4] (setting [12]), the “increase of AUC with dose of CIVI 008” value is “more than dose proportional” and the “increase of Cmax with dose of CIVI 008” value is “more than dose proportional”. Besides, in [4] (up to 25 mg CIVI 008), the “increase of AUC with dose of CIVI 008” value is listed as “dose proportionally” and the “increase of Cmax with dose of CIVI 008” value was “dose proportionally”. Besides, in series [4] (dose range 5 mg to 30 mg), the “AUC profiles, dry blended vs freeze-dried capsules” value is recorded as “very similar” and the “Cmax profiles, dry blended vs freeze-dried capsules” value is given as “very similar”. Also, the “effect of manufacture method on intestinal absorption” value in series [4] (dry blending vs co-dissolution followed by freeze-drying) was “did not appear to affect”. In series [4] (oral capsules, vs Example 1), the “AUC0-5 with 5-CNAC carrier compared to a similar dose using SNAC as carrier” value is “increase” and the “Cmax with 5-CNAC carrier compared to a similar dose using SNAC as carrier” value is “increase”. Further, in series [4] (setting [13]), the “concentrations of CIVI 008 in the plasma” value is given as “measurable concentrations” and the “mean Tmax” value is recorded as at most 30 min. Besides, in series [4] (setting [14]), the “mean Tmax on increasing capsule size” value is reported as “didn't change” and the “mean plasma PK profile on increasing capsule size” value was “didn't change”. For the same compound, the “macroscopic or microscopic findings (local or systemic effects)” value in series [5] is “no macroscopic or microscopic findings”. Moreover, the “local histopathological changes in the intestinal tract (duodenum, jejunum, ileum and colon)” value in series [5] (po) was “no local histopathological changes”. Moreover, the “LDL-c in control animals” value in [6] is recorded as “fluctuated around baseline values”. For the same compound, in [6] (end of recovery), the “return of LDL to baseline” value is recorded as “had yet to fully return to baseline”. In addition, the “LDL levels after the end of dosing” value in [6] (recovery period after 42 days of dosing) is “maintained for two weeks post-dosing”. In [7], the “form of CIVI 008 detected in plasma (HPLC peak)” value was “mixture of parent compound and metabolites”; the “form of CIVI 008 detected in plasma (HPLC retention time)” value was “absorbed intact”; the “mean Tmax” value was at most 30 min. Also, the “liver concentration relative to its steady state level” value in series [8] was over 80%.
On to `O=C([O-])CCCCCCCNC(=O)c1ccccc1O.[Na+]` [SNAC, sodium 8-(2-hydroxybenzamido)octanoate, reference compound], for which, in [3], the “mean PCSK9 reductions in control animals” value is on record as “comparatively small”. In [6], the “LDL-c in control animals” value is given as “fluctuated around baseline values”.
Consider “CIVI 008 without GalNAc: 16 nt LNA gapmer AbsAbsTbsdGsdCsdTsdAsdCsdAsdAsdAsdAsdCsCbsCbsAb, SEQ ID NO 134, no GalNAc moiety (AATGCTACAAAACCCA; sugars from the 5' end l3 d10 l3, all phosphorothioate, methylation of C not given here)”, for which, in series [9], the “AUC relative to a similar dose of CIVI 008 with GalNac” value was about 8 fold and the “Cmax relative to a similar dose of CIVI 008 with GalNac” value is on record as about 8 fold.
